What was measured:
GOX0716 = biological target: T1, GOX0716 (Gluconobacter oxydans, UniProt Q5FT03); experiment: HPLC of E-ascladiol formation by recombinant E. coli cells; type: cell-based, recombinant Escherichia coli; settings: 10 µg/mL patulin; 500 µM NADPH; 20 mM MES pH 5; 30 °C; 24 h
T1 construct: full-length in pET28a, whole E. coli LOBSTR-BL21 (DE3) cells; not purified; native N-terminus by primer MADHSI

GOX1462 = biological target: T2, GOX1462 (Gluconobacter oxydans, UniProt Q5FQY5); experiment: as above; type: cell-based, Escherichia coli; settings: 10 µg/mL patulin; 500 µM NADPH; 20 mM MES pH 5; 30 °C; 24 h
T2 construct: full-length in pET28a, whole E. coli LOBSTR-BL21 (DE3) cells; not purified (aggregated); native N-terminus by primer MQYRQLG
T2 sequence (Q5FQY5 entry or part of it): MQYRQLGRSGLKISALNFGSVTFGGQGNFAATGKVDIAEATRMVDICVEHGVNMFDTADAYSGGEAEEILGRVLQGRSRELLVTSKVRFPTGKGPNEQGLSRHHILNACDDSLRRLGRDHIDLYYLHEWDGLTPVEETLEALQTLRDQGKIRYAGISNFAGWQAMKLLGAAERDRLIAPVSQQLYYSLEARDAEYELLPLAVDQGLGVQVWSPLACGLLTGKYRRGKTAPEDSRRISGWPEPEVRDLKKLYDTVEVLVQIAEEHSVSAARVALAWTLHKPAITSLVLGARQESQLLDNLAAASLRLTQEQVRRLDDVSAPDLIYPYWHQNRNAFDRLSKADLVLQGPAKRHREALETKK

GOX1899 = biological target: T3, GOX1899 (Gluconobacter oxydans, UniProt Q5FPQ9); experiment: NADPH oxidation at […] nm, Michaelis-Menten fit; type: biochemical; settings: read-out: apparent KM; 250 µM NADPH; pH 6.0 (0.1 M Tris, 0.05 M MES, 0.05 M acetic acid); 25 °C
T3 construct: full-length, N-terminal His-tag (pET28a), E. coli LOBSTR-BL21 (DE3), Ni-NTA; about 29 kDa; native N-terminus by primer MTTDNI
T3 sequence (Q5FPQ9 entry or part of it): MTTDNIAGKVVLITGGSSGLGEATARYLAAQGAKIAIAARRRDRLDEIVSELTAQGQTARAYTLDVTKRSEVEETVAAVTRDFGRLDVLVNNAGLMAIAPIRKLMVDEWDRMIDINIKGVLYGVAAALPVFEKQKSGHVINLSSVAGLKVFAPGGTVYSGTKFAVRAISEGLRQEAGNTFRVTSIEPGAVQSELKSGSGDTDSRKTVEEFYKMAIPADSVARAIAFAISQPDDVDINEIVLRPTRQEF

GOX0525 = biological target: T4, GOX0525 (Gluconobacter oxydans, UniProt Q5FTJ3); experiment: NADPH oxidation at […] nm, Michaelis-Menten fit; type: biochemical; settings: read-out: apparent KM; 250 µM NADPH; pH 6.0 (0.1 M Tris, 0.05 M MES, 0.05 M acetic acid); 25 °C
T4 construct: full-length, N-terminal His-tag (pET28a), E. coli LOBSTR-BL21 (DE3), Ni-NTA; about 29 kDa; native N-terminus by primer MTHRVAL
T4 sequence (Q5FTJ3 entry or part of it): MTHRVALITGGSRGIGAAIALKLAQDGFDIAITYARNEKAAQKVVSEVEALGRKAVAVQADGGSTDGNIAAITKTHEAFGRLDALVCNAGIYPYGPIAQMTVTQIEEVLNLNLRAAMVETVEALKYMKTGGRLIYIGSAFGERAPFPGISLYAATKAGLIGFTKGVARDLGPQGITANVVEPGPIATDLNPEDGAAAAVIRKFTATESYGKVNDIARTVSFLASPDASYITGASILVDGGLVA

T1 sequence (Q5FT03 entry or part of it): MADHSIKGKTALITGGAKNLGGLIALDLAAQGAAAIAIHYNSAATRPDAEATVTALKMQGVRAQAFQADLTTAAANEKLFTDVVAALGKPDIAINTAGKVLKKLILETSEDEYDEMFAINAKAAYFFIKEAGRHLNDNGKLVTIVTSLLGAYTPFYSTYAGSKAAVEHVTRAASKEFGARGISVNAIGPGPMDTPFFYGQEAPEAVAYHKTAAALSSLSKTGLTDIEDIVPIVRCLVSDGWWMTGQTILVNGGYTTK

SMILES: O=C1C=C2C(=CCOC2O)O1 (stereo not shown) [patulin, 4-hydroxy-4H-furo [3,2-c]pyran-2(6H)-one]
- HPLC of E-ascladiol formation by recombinant E. coli cells (GOX0716): capable of producing E-ascladiol were those containing GOX0525, GOX1899, GOX1462 and GOX0716
- HPLC of E-ascladiol formation by recombinant E. coli cells (GOX1462): capable of producing E-ascladiol were those containing GOX0525, GOX1899, GOX1462 and GOX0716
- Km (GOX1899): 7.26 ± 0.54 mM
- Km (GOX0525): 8.64 ± 0.89 mM
